Tested on: Aedes aegypti
Test: In vitro Warm Body assay, mosquitoes landing on treated warm body
Format: in vivo
Conditions: for repellent effect with increasing amount of stimuli (in words): 0.0016%, 0.04% and 1% in ethanol (FIG. 10)
Description: (§1) The arthropod controlling effect according to the present invention is determined on mosquitoes using an adapted Warm Body assay as defined in Kröber T, Kessler S, Frei J, Bourquin M, Guerin P M. An in vitro assay for testing mosquito controlling compounds employing a warm body and carbon dioxide as a behavioral activator. J Am Mosq Control Assoc. 2010; 26:381-386.
(§2) The controlling effect according to the present invention is determined by testing the Warm Body assay against the yellow fever mosquito, Aedes aegypti Rockefeller strain. […] Observations of controlling efficacy were made on host-seeking females of uniform age, 5 to 10 days old selected as mentioned in the publication mentioned hereinabove. Tested hungry females had access to 10% sugar solution but were not blood-fed.
(§3) The published protocol has been adapted in not manually counting the landing mosquitoes but automatically using an automatic counting software, the switch from Anopheles gambiae to A. aegypti led to a decrease of mosquitoes' number placed in the tested cage due to the size difference (i.e. 30 mosquitoes instead of 50) and to an increase of lighting as A. aegypti is a diurnal mosquitoes (i.e. 150 lux instead of 4 lux).
as §2, with “A.” for “Aedes”
as §1, with “The” for “The arthropod”, “was assessed” for “is determined on mosquitoes”
as §3, with “Aedes” for “A.”
In this in-vitro assay the number of A. aegypti landing on a warm body treated with the tested stimuli was measured in order to assess the repellency effect. Three replicates were carried on the three different doses: 0.0016%, 0.04% and 1% in ethanol, using 25 A. aegypti 10-12 days old females per cage.
In this in-vitro assay, the number of Aedes aegypti landing on a warm body treated with the tested stimuli was measured in order to assess the repellency effect. Three replicates were carried on the three different doses: 0.0016%, 0.04% and 1% in ethanol.
In this in-vitro assay, the number of Aedes aegypti landing on a warm body treated with the tested stimuli was measured in order to assess the repellency effect. One replicate was carried at different doses ranging from 0.0016% up to 1% in ethanol.

In the case of `CC1OC(C)C2Cc3ccccc3C2O1` (stereo not drawn) [(+)-2,4-dimethyl-4,4a,5,9b-tetrahydroindeno[1,2-d][1,3]dioxine + (−)-2,4-dimethyl-4,4a,5,9b-tetrahydroindeno[1,2-d][1,3]dioxine], the “number of mosquitoes landed on the Warm Body” value (“number of mosquitoes landed” below) (0.0016% in ethanol (Table 6)) is reported as 58, the “number of mosquitoes landed” value (0.04% in ethanol (Table 6)) is reported as 37 and the “number of mosquitoes landed” value (1% in ethanol (Table 6)) is reported as 3.

With “(1RS,2RS)-2-((2-methoxypropan-2-yloxy)methyl)-2,6-dimethyl-2,3-dihydro-1H-inden-1-ol+(1RS,2SR)-2-((2-methoxypropan-2-yloxy)methyl)-2,6-dimethyl-2,3-dihydro-1H-inden-1-ol” the “repellent effect with increasing amount of stimuli (in words)” value was “significant lower repellent effect than DEET or IR3535”.

In the case of “(1RS,2RS)-2-(hydroxymethyl)-2,6-dimethyl-2,3-dihydro-1H-inden-1-ol+(1RS,2SR)-2-(hydroxymethyl)-2,6-dimethyl-2,3-dihydro-1H-inden-1-ol”, the “repellent effect with increasing amount of stimuli (in words)” value is reported as “significant lower repellent effect than DEET or IR3535”.

With “(2RS,4aRS,9bRS)-2,4a,7-trimethyl-4,4a,5,9b-tetrahydroindeno[1,2-d][1,3]dioxine + (2RS,4aSR,9bSR)-2,4a,7-trimethyl-4,4a,5,9b-tetrahydroindeno[1,2-d][1,3]dioxine” the “number of mosquitoes landed” value (0.0016% in ethanol (Table 6)) was 30, the “number of mosquitoes landed” value (0.04% in ethanol (Table 6)) was 0 and the “number of mosquitoes landed” value (0.04% in ethanol (Table 6), listed as blend of (2RS,4aRS,9bRS)-2,4a,7-trimethyl-4,4a,5,9b-tetrahydroindeno[1,2-d][1,3]) was “no mosquito landed at all”. The “number of mosquitoes landed” value (1% in ethanol (Table 6)) was 0 and the “number of mosquitoes landed” value (1% in ethanol (Table 6), listed as blend of (2RS,4aRS,9bRS)-2,4a,7-trimethyl-4,4a,5,9b-tetrahydroindeno[1,2-d][1,3]) was “zero”.

With “(2RS,4aRS,9bSR)-2-ethyl-8-methyl-4,4a,5,9b-tetrahydroindeno[1,2-d][1,3]dioxin + (2RS,4aSR,9bRS)-2-ethyl-8-methyl-4,4a,5,9b-tetrahydroindeno[1,2-d][1,3]dioxin” the “number of mosquitoes landed” value (0.0016% in ethanol (Table 6)) was 45, the “number of mosquitoes landed” value (0.04% in ethanol (Table 6)) was 24 and the “number of mosquitoes landed” value (1% in ethanol (Table 6)) was 10.

“(2RS,4aRS,9bSR)-2-methyl-4,4a,5,9b-tetrahydroindeno[1,2-d][1,3]dioxin + (2RS,4aSR,9bRS)-2-methyl-4,4a,5,9b-tetrahydroindeno[1,2-d][1,3]dioxin” was tested, and the “number of mosquitoes landed” value (0.0016% in ethanol (Table 6)) was 28, the “number of mosquitoes landed” value (0.04% in ethanol (Table 6)) was 2 and the “number of mosquitoes landed” value (1% in ethanol (Table 6)) was 2.

In the case of “(2RS,4aSR,9bRS)-2,8-dimethyl-4,4a,5,9b-tetrahydroindeno[1,2-d][1,3]dioxine + 2RS,4aRS,9bSR)-2,8-dimethyl-4,4a,5,9b-tetrahydroindeno[1,2-d][1,3]dioxine”, the “number of mosquitoes landed” value (0.0016% in ethanol (Table 6)) is reported as 38, the “number of mosquitoes landed” value (0.04% in ethanol (Table 6)) is reported as 14 and the “number of mosquitoes landed” value (1% in ethanol (Table 6)) is reported as 4.

With “(2RS,4aSR,9bRS)-2-ethyl-4,4a,5,9b-tetrahydroindeno[1,2-d][1,3]dioxine + (2RS,4aRS,9bSR)-2-ethyl-4,4a,5,9b-tetrahydroindeno[1,2-d][1,3]dioxine” the “number of mosquitoes landed” value (0.0016% in ethanol (Table 6)) was 43, the “number of mosquitoes landed” value (0.04% in ethanol (Table 6)) was 6 and the “number of mosquitoes landed” value (1% in ethanol (Table 6)) was 5.
